Test system: cancer cell lines of Table 2
Experiment: Multiplexed cytotoxicity assay: apoptosis (activated caspase-3; Cal_X2, Cal_X5, Max_Fold_Change)
Assay type: cell-based
Experimental: Cells are grown in RPMI1640, 10% FBS, 2 mM L-alanyl-L-Glutamine, 1 mM Na pyruvate or a special medium in a humidified atmosphere of 5% CO2 at 37° C. Cells are seeded into 384-well plates and incubated in a humidified atmosphere of 5% CO2 at 37° C. Compounds are added 24 h post cell seeding. At the same time, a time zero untreated cell plate is generated. After a 72 hour incubation period, cells are fixed and stained with fluorescently labeled antibodies and nuclear dye to allow visualization of nuclei, apoptotic cells and mitotic cells. Apoptotic cells are detected using an anti-active caspase-3 antibody. Mitotic cells are detected using an anti phospho-histone-3 antibody. Compounds are serially diluted 3.16-fold and assayed over 10 concentrations in a final assay concentration of 0.1% DMSO from the highest test concentration of 10 μM. Automated fluorescence microscopy was carried out using a Molecular Devices ImageXpress Micro XL high-content imager, and images are collected with a 4× objective.
The activated caspase-3 marker labels cells from early to late stage apoptosis. Concentrations of test compound that cause a 5-fold induction in the caspase-3 signal (Cal_X5) indicate significant apoptosis induction. The maximal induction of caspase 3 by compound in comparison with DMSO control is reported as Max_Fold_Change.
In Another Experiment, Cells were Grown in RPMI1640, 10% FBS, 2 mM L-alanyl-L-Glutamine, 1 mM Na pyruvate or a special medium in a humidified atmosphere of 5% CO2 at 37° C. Cells were seeded into 384-well plates and incubated in a humidified atmosphere of 5% CO2 at 37° C. Compounds were added 24 h post cell seeding. At the same time, a time zero untreated cell plate was generated. After a 72 hour incubation period, cells were fixed and stained with fluorescently labeled antibodies and nuclear dye to allow visualization of nuclei, apoptotic cells and mitotic cells. Apoptotic cells were detected using an anti-active caspase-3 antibody. Mitotic cells were detected using an anti phospho-histone-3 antibody. Compounds were serially diluted 3.16-fold and assayed over 10 concentrations in a final assay concentration of 0.1% DMSO from the highest test concentration of 10 μM. Automated fluorescence microscopy was carried out using a Molecular Devices ImageXpress Micro XL high-content imager, and images were collected with a 4× objective.
The activated caspase-3 marker labels cells from early to late stage apoptosis. Concentrations of test compound that cause a 2-fold (Cal-X2) or 5-fold induction in the caspase-3 signal (Cal_X5) indicated significant apoptosis induction. The maximal induction of caspase 3 by compound in comparison with DMSO control was reported as Max_Fold_Change.

C[C@]1(C(N)=O)CC[C@@H](n2c(Nc3c(Cl)cc(Cl)cc3Cl)nc3cnc(N[C@@H]4CCOC[C@H]4F)nc32)CC1 [Compound 1, cis-4-[2-{[(3S,4R)-3-fluorooxan-4-yl]amino}-8-(2,4,6-trichloroanilino)-9H-purin-9-yl]-1-methyl cyclohexane-1-carboxamide]
CalX2 (HS611T, Lymphoma): 2.8507 µM | CalX5 (HS611T, Lymphoma): 10 µM | Max fold change (HS611T, Lymphoma): 3.84 | CalX2 (HS688AT, Skin, Melanoma): 10 µM | CalX5 (HS688AT, Skin, Melanoma): 10 µM | Max fold change (HS688AT, Skin, Melanoma): 1.61 | CalX2 (HS695T, Skin, Melanoma): 0.0253 µM | CalX5 (HS695T, Skin, Melanoma): 0.0727 µM | Max fold change (HS695T, Skin, Melanoma): 22.05 | CalX2 (HS852T, Skin, Melanoma): 0.05 µM | CalX5 (HS852T, Skin, Melanoma): 0.234 µM | Max fold change (HS852T, Skin, Melanoma): 6.51 | CalX2 (HT1197, Bladder): 0.1601 µM | CalX5 (HT1197, Bladder): 10 µM | Max fold change (HT1197, Bladder): 4.16 | CalX2 (HT1376, Bladder): 0.0524 µM | CalX5 (HT1376, Bladder): 0.167 µM | Max fold change (HT1376, Bladder): 10.87 | CalX2 (HT, Lymphoma): 8.6354 µM | CalX5 (HT, Lymphoma): 10 µM | Max fold change (HT, Lymphoma): 2.44 | CalX2 (HUCCT1, Liver): 0.0222 µM | CalX5 (HUCCT1, Liver): 0.0406 µM | Max fold change (HUCCT1, Liver): 11.54 | CalX2 (HUH6CLONE5, Liver): 0.0631 µM | CalX5 (HUH6CLONE5, Liver): 0.302 µM | Max fold change (HUH6CLONE5, Liver): 8.25 | CalX2 (J82, Bladder): 2.4365 µM | CalX5 (J82, Bladder): 10 µM | Max fold change (J82, Bladder): 3.17 | CalX2 (JEKO1, Lymphoma): 4.3369 µM | CalX5 (JEKO1, Lymphoma): 10 µM | Max fold change (JEKO1, Lymphoma): 3.11 | CalX2 (JIYOYE, Lymphoma): 4.4004 µM | CalX5 (JIYOYE, Lymphoma): 5.35 µM | Max fold change (JIYOYE, Lymphoma): 11.1 | CalX2 (JRT3T35, Leukemia): 2.6364 µM | CalX5 (JRT3T35, Leukemia): 3.8 µM | Max fold change (JRT3T35, Leukemia): 14.26 | CalX2 (JURKAT, Leukemia): 1.6173 µM | CalX5 (JURKAT, Leukemia): 3.28 µM | Max fold change (JURKAT, Leukemia): 14.48 | CalX2 (K562, Leukemia): 2.9298 µM | CalX5 (K562, Leukemia): 4.86 µM | Max fold change (K562, Leukemia): 51.89 | CalX2 (KG1, Leukemia): 2.5811 µM | CalX5 (KG1, Leukemia): 10 µM | Max fold change (KG1, Leukemia): 2.5 | CalX2 (KU812, Leukemia): 0.03 µM | CalX5 (KU812, Leukemia): 8.02 µM | Max fold change (KU812, Leukemia): 5.63 | CalX2 (L428, Lymphoma): 4.2384 µM | CalX5 (L428, Lymphoma): 5.88 µM | Max fold change (L428, Lymphoma): 7.51 | CalX2 (MC116, Lymphoma): 2.8763 µM | CalX5 (MC116, Lymphoma): 5.18 µM | Max fold change (MC116, Lymphoma): 9.46 | CalX2 (MEG01, Leukemia): 0.5718 µM | CalX5 (MEG01, Leukemia): 10 µM | Max fold change (MEG01, Leukemia): 2.77 | CalX2 (MHHPREB1, Leukemia): 5.1142 µM | CalX5 (MHHPREB1, Leukemia): 7.66 µM | Max fold change (MHHPREB1, Leukemia): 11.43 | CalX2 (MOLT3, Leukemia): 5.88 µM | CalX5 (MOLT3, Leukemia): 10 µM | Max fold change (MOLT3, Leukemia): 3.63 | CalX2 (MOLT16, Leukemia): 2.4102 µM | CalX5 (MOLT16, Leukemia): 4.97 µM | Max fold change (MOLT16, Leukemia): 8.06 | CalX2 (MV411, Leukemia): 0.0933 µM | CalX5 (MV411, Leukemia): 1.15 µM | Max fold change (MV411, Leukemia): 8.12 | CalX2 (MX1, Leukemia): 1.1016 µM | CalX5 (MX1, Leukemia): 10 µM | Max fold change (MX1, Leukemia): 3.78 | CalX2 (NALM6, Leukemia): 0.1241 µM | CalX5 (NALM6, Leukemia): 10 µM | Max fold change (NALM6, Leukemia): 5 | CalX2 (NAMALWA, Lymphoma): 5.9431 µM | CalX5 (NAMALWA, Lymphoma): 10 µM | Max fold change (NAMALWA, Lymphoma): 2.68 | CalX2 (OCUG1, Liver): 0.0848 µM | CalX5 (OCUG1, Liver): 0.49 µM | Max fold change (OCUG1, Liver): 5.49 | CalX2 (RAJI, Lymphoma): 2.5564 µM | CalX5 (RAJI, Lymphoma): 4.07 µM | Max fold change (RAJI, Lymphoma): 24.81 | CalX2 (RAMOSRA1, Lymphoma): 4.5496 µM | CalX5 (RAMOSRA1, Lymphoma): 7.39 µM | Max fold change (RAMOSRA1, Lymphoma): 25.1 | CalX2 (REC1, Lymphoma): 10 µM | CalX5 (REC1, Lymphoma): 10 µM | Max fold change (REC1, Lymphoma): 1.86 | CalX2 (RPMI6666, Lymphoma): 3.0419 µM | CalX5 (RPMI6666, Lymphoma): 4.37 µM | Max fold change (RPMI6666, Lymphoma): 26.35 | CalX2 (RS411, Leukemia): 3.8025 µM | CalX5 (RS411, Leukemia): 8.4 µM | Max fold change (RS411, Leukemia): 5.83 | CalX2 (SCABER, Bladder): 0.0086 µM | CalX5 (SCABER, Bladder): 0.0506 µM | Max fold change (SCABER, Bladder): 29.47 | CalX2 (SCC9, Head and Neck): 0.6679 µM | CalX5 (SCC9, Head and Neck): 3.86 µM | Max fold change (SCC9, Head and Neck): 9.58 | CalX2 (SKNEP1, Kidney): 10 µM | CalX5 (SKNEP1, Kidney): 10 µM | Max fold change (SKNEP1, Kidney): 1.15 | CalX2 (SNU423, Liver): 0.0909 µM | CalX5 (SNU423, Liver): 1.65 µM | Max fold change (SNU423, Liver): 7.32 | CalX2 (SR, Lymphoma): 1.2842 µM | CalX5 (SR, Lymphoma): 3.07 µM | Max fold change (SR, Lymphoma): 33.52 | CalX2 (ST486, Lymphoma): 4.2422 µM | CalX5 (ST486, Lymphoma): 6.11 µM | Max fold change (ST486, Lymphoma): 10.85 | CalX2 (SUDHL4, Lymphoma): 2.5668 µM | CalX5 (SUDHL4, Lymphoma): 4.83 µM | Max fold change (SUDHL4, Lymphoma): 10.75 | CalX2 (SUDHL5, Lymphoma): 1.6359 µM | CalX5 (SUDHL5, Lymphoma): 4.54 µM | Max fold change (SUDHL5, Lymphoma): 10.37 | CalX2 (SUDHL8, Lymphoma): 1.2344 µM | CalX5 (SUDHL8, Lymphoma): 4.19 µM | Max fold change (SUDHL8, Lymphoma): 10.79 | CalX2 (SUDHL10, Lymphoma): 3.611 µM | CalX5 (SUDHL10, Lymphoma): 4.87 µM | Max fold change (SUDHL10, Lymphoma): 11.63 | CalX2 (SUPT1, Lymphoma): 4.5476 µM | CalX5 (SUPT1, Lymphoma): 9.21 µM | Max fold change (SUPT1, Lymphoma): 5.76 | CalX2 (T24, Bladder): 4.5443 µM | CalX5 (T24, Bladder): 10 µM | Max fold change (T24, Bladder): 2.61 | CalX2 (TCCSUP, Bladder): 5.6435 µM | CalX5 (TCCSUP, Bladder): 10 µM | Max fold change (TCCSUP, Bladder): 3.67 | CalX2 (TF1, Leukemia): 0.006 µM | CalX5 (TF1, Leukemia): 0.0296 µM | Max fold change (TF1, Leukemia): 16.1 | CalX2 (THP1, Leukemia): 0.132 µM | CalX5 (THP1, Leukemia): 3.9 µM | Max fold change (THP1, Leukemia): 6.3 | CalX2 (TUR, Lymphoma): 0.6984 µM | CalX5 (TUR, Lymphoma): 3.45 µM | Max fold change (TUR, Lymphoma): 17.35 | CalX2 (UMUC3, Bladder): 2.7934 µM | CalX5 (UMUC3, Bladder): 5.76 µM | Max fold change (UMUC3, Bladder): 6.56 | Induction of apoptosis (variety of cancer cell lines): induce apoptosis
